Test results reported in patent US7557137B2, “Gamma-lactams as beta-secretase inhibitors” (Bristol-Myers Squibb Company, priority 2002, dated 2009).

Target: T1, BACE enzyme (Homo sapiens, UniProt P56817)
T1 construct: the catalytic domain, appended by a C-terminal poly-histidine tag, is secreted out into the cellular medium; made in house; host or cells: Drosophila melanogaster S2 cells
Assay: BACE enzyme inhibition, fluorescence-quenched peptide substrate MCA-EVNLDAEFK(DNP)
Assay type: biochemical
Conditions: 50 mM acetate, pH 4.5, 0.25 mg/ml bovine serum albumin, 2.5% DMSO; read-out: Activity Rating (based on IC50 values)
Text: There are a number of methods by which inhibitors of the BACE enzyme can be identified experimentally. The enzyme can be obtained from membrane samples from natural tissues or cultured cells or can be expressed recombinantly in a host cell by well known methods of molecular biology. […] The enzymatic activity and/or ligand binding capability of the enzyme can be assessed within these membrane samples, or the enzyme can be purified to varying extents. As an illustrative example, the nucleic acid sequence encoding the pro and catalytic domains of human BACE can be appended on the 5′ end with an untranslated and signal sequence from the gene for acetylcholinesterase, and on the 3′ end with a sequence encoding a poly-histidine tag. This cDNA can then be expressed in Drosophila melanogaster S2 cells in which the signal and pro sequences of the transcribed/translated protein are removed by cellular proteases and the catalytic domain, appended by a C-terminal poly-histidine tag, is secreted out into the cellular medium. The enzyme can then be purified from the culture medium by nickel affinity chromatography by methods well known to those trained in the art [Mallender, W. et al., (2001) “Characterization of recombinant, soluble beta-secretase from an insect cell expression system.” Mol. Pharmacol. 59: 619-626]. Similar strategies for expressing and purifying various forms of BACE in bacterial, mammalian and other cell types would be known to one skilled in the art.
The enzyme thus obtained can be put in contact with a test compound and with an appropriate substrate on which enzyme-mediated peptide bond hydrolysis is known to occur. The ability of the test compound to diminish the rate of substrate hydrolysis can then be quantified as a measure of inhibition potency. Appropriate substrates can be prepared as peptides, proteins, or chemically modified versions of peptides or proteins, that contain an amino acid sequence that is recognized as a substrate by the enzyme. For example, the amino acid sequence immediately proximal to the beta-cleavage site within Swedish mutant APP is known to be recognized as a substrate for BACE. […] Longer peptide and protein substrates can also be designed by extending the amino acid composition on the N-terminal, the C-terminal, or both ends.
In one known application of (SEQ. ID. NO.:1), X is a 7-methoxycoumarin-4-acetyl (MCA) group and Y is a dinitrophenyl (DNP) group [Marcinkeviciene, J. et al., (2001) “Mechanism of inhibition of beta-site amyloid precursor protein-cleaving enzyme (BACE) by a statine-based peptide.” J. Biol. Chem. 276: 23790-23794]. When this peptide is intact, the natural fluorescence of the MCA group is quenched by its proximity to the DNP group. […] The increase in fluorescence intensity that accompanies enzyme-mediated peptide hydrolysis can be measured as a function of time to quantify the velocity of enzyme catalysis. In a typical assay system the BACE enzyme is diluted into a buffer system composed of 50 mM acetate, pH 4.5 containing 0.25 mg/ml bovine serum albumin. To this is added neat dimethyl sulfoxide (DMSO) or a stock solution of test compound dissolved in DMSO so that the final amount of DMSO in all assays is held constant at 2.5% (v:v). The enzymatic reaction is then initiated by addition of a stock solution of the substrate peptide to a known concentration. The fluorescence increase with time after substrate addition is monitored with an appropriate fluorescence detection instrument, such as a microplate reader or spectrofluorometer. The slope of the signal vs. time plot (progress curve) for samples to which only DMSO was added is taken as a measure of the uninhibited velocity and represents 100% enzymatic activity.

T1 sequence (P56817 75-416 limits assumed): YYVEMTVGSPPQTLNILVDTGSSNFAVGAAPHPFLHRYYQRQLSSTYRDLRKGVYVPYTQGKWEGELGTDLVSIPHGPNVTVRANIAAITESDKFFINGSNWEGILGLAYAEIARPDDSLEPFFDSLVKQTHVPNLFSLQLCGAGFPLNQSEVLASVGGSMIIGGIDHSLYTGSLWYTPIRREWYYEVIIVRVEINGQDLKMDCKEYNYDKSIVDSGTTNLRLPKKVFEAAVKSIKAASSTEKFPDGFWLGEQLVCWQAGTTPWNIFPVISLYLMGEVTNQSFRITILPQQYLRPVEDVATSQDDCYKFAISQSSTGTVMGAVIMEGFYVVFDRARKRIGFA

| Structure (SMILES) | IC50 [nM] |
| --- | --- |
| CCC(=O)N[C@]1([C@@H](C)CC)CCN([C@@H](CCc2ccccc2)C(=O)N[C@@H](Cc2ccccc2)[C@H](O)CNCc2cccc(OC)c2)C1=O [Example 10, (2S)-2-(3(S)-propionylamino-3-((S)-sec-butyl)-2-oxo-pyrrolidin-1-yl)-N-[(1S,2R)-1-benzyl-2-hydroxy-3-(3-methoxy-benzylamino)-propyl]-4-phenyl-butyramide] | < 100 |
| CC[C@H](C)[C@@]1(NC(C)=O)CCN([C@@H](CCc2ccccc2)C(=O)N[C@@H](Cc2ccccc2F)[C@H](O)CNCc2cccc(OC)c2)C1=O [Example 11, (2S)-2-(3(S)-acetylamino-3-((S)-sec-butyl)-2-oxo-pyrrolidin-1-yl)-N-[(1S,2R)-1-(2-fluorobenzyl)-2-hydroxy-3-(3-methoxy-benzylamino)-propyl]-4-phenyl-butyramide] | 100 to 1000 |
| CC[C@H](C)[C@@]1(NC(C)=O)CCN([C@@H](CCc2ccccc2)C(=O)N[C@@H](Cc2ccccc2F)[C@H](O)CNCc2cccc(Cl)c2)C1=O [Example 12, (2S)-2-(3(S)-acetylamino-3-((S)-sec-butyl)-2-oxo-pyrrolidin-1-yl)-N-[(1S,2R)-1-(2-fluorobenzyl)-2-hydroxy-3-(3-chloro-benzylamino)-propyl]-4-phenyl-butyramide] | 100 to 1000 |
| CCOC(=O)N[C@]1([C@@H](C)CC)CCN([C@@H](CCc2ccccc2)C(=O)N[C@@H](Cc2ccccc2)[C@@H](O)CNCc2cccc(OC)c2)C1=O [Example 13, (2S)-2-(3(S)-ethoxycarbonylamino-3-((S)-sec-butyl)-2-oxo-pyrrolidin-1-yl)-N-[(1S,2S)-1-benzyl-2-hydroxy-3-(3-methoxy-benzylamino)-propyl]-4-phenyl-butyramide] | 1000 to 50000 |
| CCCNC(=O)N[C@]1([C@@H](C)CC)CCN([C@@H](CCc2ccccc2)C(=O)N[C@@H](Cc2ccccc2)[C@H](O)CNCc2cccc(OC)c2)C1=O [Example 17, (2S)-2-(3(S)-propylureido-3-((S)-sec-butyl)-2-oxo-pyrrolidin-1-yl)-N-[(1S,2R)-1-benzyl-2-hydroxy-3-(3-methoxy-benzylamino)-propyl]-4-phenyl-butyramide] | 100 to 1000 |
| CCNC(=O)N[C@]1([C@@H](C)CC)CCN([C@@H](CCc2ccccc2)C(=O)N[C@@H](Cc2ccccc2)[C@H](O)CNCc2cccc(OC)c2)C1=O [Example 18, (2S)-2-(3(S)-ethylureido-3-((S)-sec-butyl)-2-oxo-pyrrolidin-1-yl)-N-[(1S,2R)-1-benzyl-2-hydroxy-3-(3-methoxy-benzylamino)-propyl]-4-phenyl-butyramide] | < 100 |
| CC[C@H](C)[C@@]1(NC(=O)C(F)(F)F)CCN([C@@H](CCc2ccccc2)C(=O)N[C@@H](Cc2ccccc2)[C@H](O)CNCc2cccc(OC)c2)C1=O [Example 19, (2S)-2-(3(S)-(trifluoroacetyl)amino-3-((S)-sec-butyl)-2-oxo-pyrrolidin-1-yl)-N-[(1S,2R)-1-benzyl-2-hydroxy-3-(3-methoxy-benzylamino)-propyl]-4-phenyl-butyramide] | 100 to 1000 |
| CC[C@H](C)[C@@]1(NC(=O)CCc2cnc[nH]2)CCN([C@@H](CCc2ccccc2)C(=O)N[C@@H](Cc2ccccc2)[C@H](O)CNCc2cccc(OC)c2)C1=O [Example 20, (2S)-2-(3(S)-(3-3H-imidazol-4-yl-propionylamino)-3-((S)-sec-butyl)-2-oxo-pyrrolidin-1-yl)-N-[(1S,2R)-1-benzyl-2-hydroxy-3-(3-methoxy-benzylamino)-propyl]-4-phenyl-butyramide] | 100 to 1000 |
| CC[C@H](C)[C@@]1(NC(=O)CCO)CCN([C@@H](CCc2ccccc2)C(=O)N[C@@H](Cc2ccccc2)[C@H](O)CNCc2cccc(OC)c2)C1=O [Example 24, (2S)-2-(3(S)-(3-hydroxypropionylamino)-3-((S)-sec-butyl)-2-oxo-pyrrolidin-1-yl)-N-[(1S,2R)-1-benzyl-2-hydroxy-3-(3-methoxy-benzylamino)-propyl]-4-phenyl-butyramide] | < 100 |
| CC[C@H](C)[C@@]1(NC(=O)CCCO)CCN([C@@H](CCc2ccccc2)C(=O)N[C@@H](Cc2ccccc2)[C@H](O)CNCc2cccc(OC)c2)C1=O [Example 25, (2S)-2-(3(S)-(4-hydroxybutyrylamino)-3-((S)-sec-butyl)-2-oxo-pyrrolidin-1-yl)-N-[(1S,2R)-1-benzyl-2-hydroxy-3-(3-methoxy-benzylamino)-propyl]-4-phenyl-butyramide] | < 100 |
| CCC(C)[C@@]1(NS(=O)(=O)CC)CCN([C@@H](CCc2ccccc2)C(=O)N[C@@H](Cc2ccccc2)C(O)CNCc2cccc(OC)c2)C1=O (stereo partly drawn) [Example 26, (2S)-2-(3(S)-(ethylsulfonamido)-3-((S)-sec-butyl)-2-oxo-pyrrolidin-1-yl)-N-[(1S)-1-benzyl-2-hydroxy-3-(3-methoxy-benzylamino)-propyl]-4-phenyl-butyramide] | 1000 to 50000 |
| CCCS(=O)(=O)N[C@]1(C(C)CC)CCN([C@@H](CCc2ccccc2)C(=O)N[C@@H](Cc2ccccc2)C(O)CNCc2cccc(OC)c2)C1=O (stereo partly drawn) [Example 27, (2S)-2-(3(S)-(propylsulfonamido)-3-((S)-sec-butyl)-2-oxo-pyrrolidin-1-yl)-N-[(1S)-1-benzyl-2-hydroxy-3-(3-methoxy-benzylamino)-propyl]-4-phenyl-butyramide] | 1000 to 50000 |
| CC[C@H](C)[C@@]1(NC(C)=O)CCN([C@@H](CCc2ccccc2)C(=O)N[C@@H](Cc2ccccc2)[C@H](O)CNCc2cccc(Cl)c2)C1=O [Example 29, (2S)-2-(3(S)-acetylamino-3-((S)-sec-butyl)-2-oxo-pyrrolidin-1-yl)-N-[(1S,2R)-1-benzyl-2-hydroxy-3-(3-chloro-benzylamino)-propyl]-4-phenyl-butyramide] | < 100 |
| C#CCNC[C@@H](O)[C@H](Cc1ccccc1)NC(=O)[C@H](CCc1ccccc1)N1CC[C@](NC(C)=O)([C@@H](C)CC)C1=O [Example 30, (2S)-2-(3(S)-acetylamino-3-((S)-sec-butyl)-2-oxo-pyrrolidin-1-yl)-N-[(1S,2R)-1-benzyl-2-hydroxy-3-(propargylamino)-propyl]-4-phenyl-butyramide] | < 100 |
| CC[C@H](C)[C@@]1(NC(C)=O)CCN([C@@H](CCc2ccccc2)C(=O)N[C@@H](Cc2ccccc2)[C@H](O)CNCC2CC2)C1=O [Example 31, (2S)-2-(3(S)-acetylamino-3-((S)-sec-butyl)-2-oxo-pyrrolidin-1-yl)-N-[(1S,2R)-1-benzyl-2-hydroxy-3-(cyclopropylmethyl)amino-propyl]-4-phenyl-butyramide] | 100 to 1000 |
| CC[C@H](C)[C@@]1(NC(C)=O)CCN([C@@H](CCc2ccccc2)C(=O)N[C@@H](Cc2ccccc2)[C@H](O)CNCc2cc(F)cc(F)c2)C1=O [Example 33, (2S)-2-(3(S)-acetylamino-3-((S)-sec-butyl)-2-oxo-pyrrolidin-1-yl)-N-[(1S,2R)-1-benzyl-2-hydroxy-3-(3,5-difluorobenzylamino)-propyl]-4-phenyl-butyramide] | < 100 |
| CC(=O)N[C@]1(CC(C)C)CCN([C@@H](CCc2ccccc2)C(=O)N[C@@H](Cc2ccccc2)[C@H](O)CNCc2ccccc2)C1=O [Example 35, 2-(3(S)-Acetylamino-3(S)-isobutyl-2-oxo-pyrrolidin-1-yl)-N-[(1S,2R)-1-benzyl-2-hydroxy-3-benzylamino-propyl]-4-phenyl-butyramide] | < 100 |
| CC(=O)N[C@]1(CC(C)C)CCN([C@@H](CCc2ccccc2)C(=O)N[C@@H](Cc2ccccc2)[C@H](O)CNCCC#N)C1=O [Example 37, 2-(3(S)-Acetylamino-3(S)-isobutyl-2-oxo-pyrrolidin-1-yl)-N-[(1S,2R)-1-benzyl-3-(2-cyano-ethylamino)-2-hydroxy-propyl]-4-phenyl-butyramide] | < 100 |
| COc1cccc(CNC[C@@H](O)[C@H](Cc2cc(F)cc(F)c2)NC(=O)[C@H](CCc2ccc3c(c2)OCO3)N2CC[C@@](CC3CC3)(NC(C)=O)C2=O)c1 [Example 39] | < 100 |
